Tests used:
Assay type in all cases: biochemical
[1] = molecular target: T1, Human Neutrophil elastase (Homo sapiens, UniProt P08246); experiment: Ki determination, human neutrophil elastase (pyroGlu-Pro-Val-pNA); conditions: 100 mM Tris-HCl, pH 8.3, 0.96 M NaCl, 1% BSA; read-out: Experimentally Determined Ki, Elastase
T1 construct: from tissue; host or cells: human neutrophils
T1 sequence (P08246 30-267): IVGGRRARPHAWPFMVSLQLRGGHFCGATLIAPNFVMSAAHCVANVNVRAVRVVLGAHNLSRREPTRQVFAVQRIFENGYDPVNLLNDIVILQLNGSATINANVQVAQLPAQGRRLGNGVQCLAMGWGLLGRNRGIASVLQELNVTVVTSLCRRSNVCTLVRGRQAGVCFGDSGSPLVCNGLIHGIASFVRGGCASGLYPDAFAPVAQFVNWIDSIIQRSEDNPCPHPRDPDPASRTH
Outline: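 Enzyme preincubated with compound 15 min at 37° C. in 100 mM Tris-HCl pH 8.3, 0.96 M NaCl, 1% BSA, then pyroGlu-Pro-Val-pNA added; p-nitroaniline release read at 405 nm. Ki from tight-binding equation (active-site-titrated enzyme) corrected for substrate, or competitive-inhibitor equation when Ki >> [E]o.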

[2] = molecular target: T2, Human Neutrophil Cathepsin G (Homo sapiens, UniProt P08311); experiment: Ki determination, human neutrophil cathepsin G (N-Suc-Ala-Ala-Pro-Phe-pNA); conditions: 625 mM Tris-HCl, pH 7.5, 2.5 mM MgCl2, 0.125% Brij 35; read-out: Experimentally Determined Ki, Cathepsin G
T2 construct: from tissue; host or cells: human neutrophils
T2 sequence (P08311 21-255): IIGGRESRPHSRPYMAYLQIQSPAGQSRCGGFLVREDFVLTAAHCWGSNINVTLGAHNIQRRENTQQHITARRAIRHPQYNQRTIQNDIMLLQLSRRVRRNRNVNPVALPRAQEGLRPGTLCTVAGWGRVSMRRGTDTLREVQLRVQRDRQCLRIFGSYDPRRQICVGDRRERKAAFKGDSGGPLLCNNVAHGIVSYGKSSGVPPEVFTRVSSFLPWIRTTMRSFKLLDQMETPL
Outline: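 Cathepsin G preincubated with test compound 15 min at 37° C, then N-Suc-Ala-Ala-Pro-Phe-pNA added in 625 mM Tris-HCl pH 7.5, 2.5 mM MgCl2, 0.125% Brij 35. p-Nitroaniline read at 405 nm.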

Human plasma factor Xa = molecular target: T3, Human plasma factor Xa (Homo sapiens, UniProt P00742); experiment: Ki determination, human plasma factor Xa (N-Benzoyl-Ile-Glu-Gly-Arg-pNA); conditions: 50 mM Tris-HCl, pH 7.8, 200 mM NaCl, 0.05% BSA; read-out: Experimentally Determined Ki, Factor Xa
T3 construct: from tissue; host or cells: human plasma
Outline: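 Enzyme preincubated with compound 15 min at 37° C in 50 mM Tris-HCl pH 7.8, 200 mM NaCl, 0.05% BSA, then N-Benzoyl-Ile-Glu-Gly-Arg-pNA added and p-nitroaniline read at 405 nm. Ki from tight-binding equation with active-site-titrated enzyme, corrected for substrate, or from competitive-inhibitor equations when Ki >> [E]o.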

[3] = molecular target: T4, Bovine pancreatic Trypsin (Bos taurus, UniProt P00760); experiment: Ki determination, bovine pancreatic trypsin (N-a-Benzoyl-L-Arg-pNA); conditions: 50 mM Tris-HCl, pH 8.2, 20 mM CaCl2; read-out: Experimentally Determined Ki, Trypsin
T4 construct: from tissue; host or cells: bovine pancreas
T4 sequence (P00760 24-246): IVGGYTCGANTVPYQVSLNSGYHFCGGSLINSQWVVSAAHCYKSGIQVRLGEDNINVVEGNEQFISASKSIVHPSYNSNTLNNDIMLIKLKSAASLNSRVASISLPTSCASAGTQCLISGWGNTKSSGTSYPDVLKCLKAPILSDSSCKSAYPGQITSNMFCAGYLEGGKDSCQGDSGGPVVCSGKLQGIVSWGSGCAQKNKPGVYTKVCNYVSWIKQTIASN
Outline: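 TPCK-treated bovine trypsin was preincubated with compound for 15 min at 37° C in 50 mM Tris-HCl pH 8.2, 20 mM CaCl2, then N-a-Benzoyl-L-Arg-pNA was added and p-nitroaniline read at 405 nm. Ki came from the tight-binding equation, with [E]o from active-site titration and a substrate correction, or from competitive-inhibitor equations when Ki >>[E]o.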

Human plasma kallikrein = molecular target: T5, Human plasma kallikrein (Homo sapiens, UniProt P03952); experiment: Ki determination, human plasma kallikrein (H-D-Prolyl-Phe-Arg-pNA); conditions: 50 mM Tris-HCl, pH 7.8, 200 mM NaCl, 0.05% BSA; read-out: Experimentally Determined Ki, Plasma Kallikrein
T5 construct: from tissue; host or cells: human plasma
Outline: (§1)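 Enzyme preincubated with test compound 15 min at 37° C in 50 mM Tris-HCl pH 7.8, 200 mM NaCl, 0.05% BSA; residual activity read at 405 nm after adding H-D-Prolyl-Phe-Arg-pNA (plasma) or DL-Val-Leu-Arg-pNA (tissue). Ki from tight-binding equation (enzyme active-site titrated) corrected for substrate, or competitive-inhibitor equation when Ki >>[E]o.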

Human plasma plasmin = molecular target: T6, Human plasma plasmin (Homo sapiens, UniProt P00747); experiment: Ki determination, human plasma plasmin (Tosyl-Gly-Pro-Lys-pNA); conditions: 100 mM Tris-HCl, pH 7.4, 100 mM NaCl, 0.05% Triton X-100; read-out: Experimentally Determined Ki, Plasmin
T6 construct: from tissue; host or cells: human plasma
Outline: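 Enzyme preincubated with inhibitor 15 min at 37° C. in 100 mM Tris-HCl pH 7.4, 100 mM NaCl, 0.05% Triton X-100, then Tosyl-Gly-Pro-Lys-pNA added; p-nitroaniline release followed at 405 nm. Ki from tight-binding equation (active-site-titrated [E]o), corrected for substrate, or competitive-inhibitor equation when Ki >>[E]o.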

r-tissue kallikrein = r-tissue kallikrein (Homo sapiens, UniProt P06870); experiment: Ki determination, r-tissue kallikrein (DL-Val-Leu-Arg-pNA); conditions: 50 mM Tris-HCl, pH 7.8, 200 mM NaCl, 0.05% BSA; read-out: Experimentally Determined Ki, Tissue Kallikrein
Outline: as §1

T3 sequence (P00742 235-488 limits assumed): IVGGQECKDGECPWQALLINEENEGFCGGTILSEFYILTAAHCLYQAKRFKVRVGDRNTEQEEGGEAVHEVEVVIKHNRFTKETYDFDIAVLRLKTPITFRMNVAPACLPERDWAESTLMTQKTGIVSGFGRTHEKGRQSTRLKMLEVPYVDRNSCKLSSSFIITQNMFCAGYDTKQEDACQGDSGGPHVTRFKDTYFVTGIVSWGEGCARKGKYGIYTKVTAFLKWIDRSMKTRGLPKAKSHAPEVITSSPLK
T3 sequence (P00742 41-179 partner limits assumed): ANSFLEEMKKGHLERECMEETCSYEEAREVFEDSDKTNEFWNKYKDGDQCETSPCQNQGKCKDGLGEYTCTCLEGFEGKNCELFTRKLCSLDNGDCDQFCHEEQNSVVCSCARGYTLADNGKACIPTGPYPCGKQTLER
T5 sequence (P03952 391-638 limits assumed): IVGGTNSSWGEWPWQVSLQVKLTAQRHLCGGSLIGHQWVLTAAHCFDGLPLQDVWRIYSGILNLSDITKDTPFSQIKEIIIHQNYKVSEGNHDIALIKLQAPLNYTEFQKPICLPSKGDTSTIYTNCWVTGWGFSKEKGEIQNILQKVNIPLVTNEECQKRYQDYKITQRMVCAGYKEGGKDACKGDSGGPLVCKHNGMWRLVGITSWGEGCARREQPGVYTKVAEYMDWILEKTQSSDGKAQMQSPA
T5 sequence (P03952 20-390 partner limits assumed): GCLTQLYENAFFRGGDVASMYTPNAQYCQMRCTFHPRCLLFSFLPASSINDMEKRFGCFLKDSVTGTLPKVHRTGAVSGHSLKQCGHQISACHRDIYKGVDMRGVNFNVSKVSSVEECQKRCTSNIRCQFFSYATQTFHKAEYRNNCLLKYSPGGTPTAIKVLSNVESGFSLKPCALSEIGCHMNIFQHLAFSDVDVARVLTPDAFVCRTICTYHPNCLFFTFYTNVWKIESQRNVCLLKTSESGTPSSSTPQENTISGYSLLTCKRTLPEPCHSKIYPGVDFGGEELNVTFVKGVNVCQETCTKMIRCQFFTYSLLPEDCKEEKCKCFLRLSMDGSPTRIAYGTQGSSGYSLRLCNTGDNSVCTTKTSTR
T6 sequence (P00747 581-810 limits assumed): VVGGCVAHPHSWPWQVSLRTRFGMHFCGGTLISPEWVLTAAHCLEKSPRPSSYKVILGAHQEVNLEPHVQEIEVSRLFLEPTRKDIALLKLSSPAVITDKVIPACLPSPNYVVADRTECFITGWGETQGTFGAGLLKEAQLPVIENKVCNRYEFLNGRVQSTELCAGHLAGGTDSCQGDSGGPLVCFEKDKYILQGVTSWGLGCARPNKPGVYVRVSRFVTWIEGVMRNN
T6 sequence (P00747 97-580 partner limits assumed): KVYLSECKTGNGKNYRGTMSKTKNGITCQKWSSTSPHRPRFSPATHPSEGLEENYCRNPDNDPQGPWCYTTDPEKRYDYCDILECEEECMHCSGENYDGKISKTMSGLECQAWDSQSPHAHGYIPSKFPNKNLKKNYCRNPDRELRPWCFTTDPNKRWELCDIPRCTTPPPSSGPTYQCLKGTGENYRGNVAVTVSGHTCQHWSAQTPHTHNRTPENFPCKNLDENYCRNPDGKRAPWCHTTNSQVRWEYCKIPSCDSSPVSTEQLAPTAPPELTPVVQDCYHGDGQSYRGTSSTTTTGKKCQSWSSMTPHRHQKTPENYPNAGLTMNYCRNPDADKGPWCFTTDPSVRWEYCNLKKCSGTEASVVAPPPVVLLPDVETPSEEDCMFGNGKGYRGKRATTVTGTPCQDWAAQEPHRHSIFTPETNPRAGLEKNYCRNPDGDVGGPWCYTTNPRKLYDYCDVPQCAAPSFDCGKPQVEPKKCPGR
Chain of r-tissue kallikrein (P06870 25-262): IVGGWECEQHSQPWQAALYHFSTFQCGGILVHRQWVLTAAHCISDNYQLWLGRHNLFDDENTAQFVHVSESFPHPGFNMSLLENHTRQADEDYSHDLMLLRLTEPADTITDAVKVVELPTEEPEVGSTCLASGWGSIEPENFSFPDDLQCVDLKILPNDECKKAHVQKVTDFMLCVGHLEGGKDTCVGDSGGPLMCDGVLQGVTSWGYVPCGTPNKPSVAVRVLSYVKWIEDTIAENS

Row | Structure (SMILES) | Ki [1] | Ki [2] | Ki (Human plasma factor Xa) | Ki [3] | Ki (Human plasma kallikrein) | Ki (Human plasma plasmin) | Ki (r-tissue kallikrein)
1 | N=C(N)c1cccc(S(=O)(=O)NCc2ccc(OCCOc3ccc(CNS(=O)(=O)c4cccc(C(=N)N)c4)cc3)cc2)c1 [Example 51, 1,2-Bis-{4-[(3-carbamimidoyl-benzenesulfonylamino)-methyl]-phenoxy}-ethane] | > 100 µM | > 100 µM | 6.1 µM | 5.2 µM | 12 µM | 2 µM | > 100 µM
2 | N=C(N)c1cccc(S(=O)(=O)NCc2ccc(COCc3ccc(CNS(=O)(=O)c4cccc(C(=N)N)c4)cc3)cc2)c1 [Example 53, 1,3-Bis-{4-[(3-carbamimidoyl-benzenesulfonylamino)-methyl]-phenyl}-2-oxapropane] | > 100 µM | > 100 µM | 16 µM | 3 µM | 8.8 µM | 10 µM | > 100 µM
3 | N=C(N)c1cccc(C(=O)NCc2ccc(OCCCCCCCOc3ccc(CNC(=O)c4cccc(C(=N)N)c4)cc3)cc2)c1 [Example 59, 1,7-Bis-{4-[(3-carbamimidoyl-benzenecarbonylamino)-methyl]-phenoxy}-heptane] | > 100 µM | > 100 µM | 8.3 µM | 1.1 µM | 72 µM | 8.7 µM | > 100 µM
4 | N=C(N)c1ccc(C(=O)NCc2ccc(OCCCCOc3ccc(CNC(=O)c4ccc(C(=N)N)cc4)cc3)cc2)cc1 [Example 60, 1,4-Bis-{4-[(4-carbamimidoyl-benzenecarbonylamino)-methyl]-phenoxy}-butane] | > 100 µM | > 100 µM | 17.7 µM | 1.5 µM | 6.3 µM | 12 µM | > 100 µM
5 | N=C(N)c1cccc(S(=O)(=O)NCc2ccc(OCCCCCCCOc3ccc(CNS(=O)(=O)c4cccc(C(=N)N)c4)cc3)cc2)c1 [Example 45, 1,7-Bis-{4-[(3-carbamimidoyl-benzenesulfonylamino)-methyl]-phenoxy}-heptane] | > 100 µM | > 100 µM | 7.6 µM | 12 µM | 34 µM | 10 µM | > 100 µM

Next, values leading:

Row | Ki [1] | Ki [2] | Ki (Human plasma factor Xa) | Ki [3] | Ki (Human plasma kallikrein) | Ki (Human plasma plasmin) | Ki (r-tissue kallikrein) | Structure (SMILES)
6 | > 100 µM | > 100 µM | 15.6 µM | 3.6 µM | > 100 µM | 2.6 µM | > 100 µM | N=C(N)c1cccc(S(=O)(=O)NCc2ccc(OCCCCCCOc3ccc(CNS(=O)(=O)c4cccc(C(=N)N)c4)cc3)cc2)c1 [Example 43, 1,6-Bis-{4-[(3-carbamimidoyl-benzenesulfonylamino)-methyl]-phenoxy}-hexane]
7 | > 100 µM | > 100 µM | 1.9 µM | 1.4 µM | 2.9 µM | 4.3 µM | 32 µM | N=C(N)c1cccc(C(=O)NCc2cccc(OCCCCCOc3cccc(CNC(=O)c4cccc(C(=N)N)c4)c3)c2)c1 [Example 77, 1,5-Bis-{3-[(3-carbamimidoyl-benzenecarbonylamino)-methyl]-phenoxy}-pentane]

From patent US6221914A, “Sulfonamide bridging compounds that inhibit tryptase activity” (Array Biopharma Inc., priority 1998, dated 2001)
